Experimental data published in patent publication US5688760A, “Polypeptides having bone resorption inhibitory activity comprising PTHrP-derived sequences” (Genentech, Inc., priority 1990, dated 1997).
Each block holds one compound with its values, some of them ahead of it. Non-standard residues stand in square brackets, D forms with d. No end group written: not given here. 2Nal = N[C@@H](Cc1ccc2ccccc2c1)C(=O)O; Aib = CC(C)(N)C(=O)O

Key:
isolated osteoclasts = experiment: Osteoclast isolation and assay of bone resorption (resorption pits per osteoclast on bovine cortical bone slices); format: cell-based, neonatal female Wistar rats; parameters: key to Activity (bone resorption inhibitory activity), Table 3 Effect of Amino Acid Substitutions: bone resorption inhibitory activity is designated by a "+"; inactivity by "-"; conditions: for Activity (bone resorption inhibitory activity), Table 3 Effect of Amino Acid Substitutions: amino acid derivatives of PTHrP (107-111)
Experimental: For example, osteoclasts may be settled on sections of bone and incubated in the presence of, and in the absence of test compounds. Osteoclasts can be determined histochemically and can then be removed following incubation with bone sections by, for example, ultrasonification and the bone surface examined by microscopy to measure resorption pits produced per isolated osteoclasts. The number of resorption pits may be counted and their areas quantitated, for example by digitized morphometry. The variants or derivatives with inhibitory activity on bone resorption will, of course, inhibit the activity of osteoclasts in resorption of bone, which can be readily ascertained by analysis of bone sections. Likewise, variants or derivatives which have no effect in inhibiting bone resorption or which stimulate bone resorption will be evidenced by the formation of resorption pits on bone-sections.
Osteoclasts were isolated from neonatal female Wistar rats by curetting the long bones into culture medium (HEPES-buffered Medium 199 [Trademark Flow Laboratories]). The resulting cell suspension was allowed to settle onto 100 μm thick slices of devitalized bovine cortical bone for 20 minutes before rinsing. After this brief settling period, the majority of contaminating cells are removed in the rinsing step, resulting in a functionally pure population of osteoclasts. The bone slices were then incubated in tissue culture medium (Eagle's Minimum Essential Medium [Flow Laboratories] supplemented, with 100 iU/ml benzylpenicillin 100 μg/ml streptomycin and 10% heat-inactivated fetal bovine serum) at 37° C. in 95% air, 5% CO2, pH 7.3 in the presence or absence of test agents. After 24 hours, the cells were fixed, reacted cytochemically for tartrate-resistant acid phosphatase (TRACP) and the number of multinucleated cells with strong reactions for TRACP (i.e. osteoclasts) counted. The cells were then stripped by ultrasonication in 0.25M NH4 OH prior to processing for scanning electronic microscopy. The entire surface of each bone slice was scanned and the number of resorption pits counted. In selected experiments the depth of the pits are assessed. There was a minimum of 6 replicates for each concentration point for each peptide. Each experiment was repeated at least 3 times. Statistical significance was determined by using Student's t test to compare each treatment with control. Bone resorption can be expressed as pit No./OC/bone slice, total excavated plan area/OC/bone slice, or total excavated volume of bone/OC/bone slice. Such assays are routine and readily amenable to the screening of large numbers of compounds for bone resorption inhibitory activity.

[1] = system: Cyclic AMP in osteoclasts; experiment: Cyclic AMP assay in isolated osteoclasts; format: cell-based, rat; conditions: osteoclasts pretreated with isobutylmethylxanthine 1 mM, peptide for 10 minutes
Experimental: Recombinant hPTHrP(1-141) and recombinant hPTHrP(1-108) were prepared and purified as previously described (Suva et al., Supra, incorporated herein by reference). hPTHrP(107-139), […]COOH (SEQ ID NO:2), and other peptides were synthesized as carboxy-terminal amides, using an Applied Biosystems Peptide Synthesizer Model 430. Following HF cleavage, peptides were extracted from the resin with 60% (v/v) acetonitrile and 0.1% (v/v) trifluoroacetic acid and lyophilized. The crude peptides were purified by […] (2.5×90 cm column, C18, 20-30 μm. 300 Å resin, Vydac, California) with an acetonitrile gradient in the presence of 0.1% trifluoroacetic acid. The composition of the synthetic peptides was verified by quantitative amino acid analysis using a Beckman 6300 amino acid analyser. Cyclic AMP Assay: Osteoclasts were isolated as described above into 12-well tissue culture plates (Linbro). The cultures were pretreated with isobutylmethylxanthine (1 mM) for 20 minutes prior to administration of test peptides for 10 minutes. Cyclic AMP was extracted with 95% (v/v) ethanol/1 mM HCl and measured by radioimmunoassay. Four to six replicate wells were used in each treatment group.

[2] = In vivo serum calcium levels after intravenous injection in rats; conditions: 100 nanograms 100 grams body weight, saline control about 2.58
Experimental: Mammalian serum calcium levels are tightly controlled by homeostatic mechanisms and show little variation. A model peptide, PTHrP 107-139 was injected intraveneously into rats (n=10) in an amount of 100 nanograms 100 grams body weight whereafter serum calcium levels were measured at 30 and 60 minutes by atomic absorption spectrascopy according to standard methods. Control groups of animals were injected with a positive control, calcitonin, which causes a decrease in serum calcium levels, as well as a negative control in the form of saline. Two groups of 10 rats ware used in these controls.

effect of PTHrP(107-139) on osteoclasts in the presence of protein kinase C inhibitor (isolated osteoclasts): blocked
Compound: CC1CNCCN1S(=O)(=O)c1cccc2cnccc12 (stereo not shown) [H7, 1-(5-isoquinolinesulfonyl)-2 methyl piperazine, reference compound]

Compound: T R C A W P G T C (TRCAWPGTC)
Activity (bone resorption inhibitory activity), Table 3 Effect of Amino Acid Substitutions (isolated osteoclasts): +

Compound: T R S npA (TRS[2Nal]; not fully specified (C-terminus); printed as T R S npA) [npA is 3(2-napthyl)alanine]
Activity (bone resorption inhibitory activity), Table 3 Effect of Amino Acid Substitutions (isolated osteoclasts): +

Compound: T R SmeA W (TRS[Aib]W; not fully specified (C-terminus); printed as T R SmeA W) [me is α-methyl]
Activity (bone resorption inhibitory activity), Table 3 Effect of Amino Acid Substitutions (isolated osteoclasts): +

Compound: Thr Arg Ser Ala Trp Leu Asp Ser Gly Val Thr Gly Ser Gly Leu Glu Gly Asp His Leu Ser Asp Thr Ser Thr Thr Ser Leu Glu Leu Asp Ser Arg-COOH (TRSAWLDSGVTGSGLEGDHLSDTSTTSLELDSR-OH) [PTHrP(107-139)]
inhibition of resorption (pit number/osteoclast number), FIG. 2 (isolated osteoclasts; peptides at 1 nM): substantial inhibition | cyclic AMP response [1]: no elevation | serum calcium level at 30 minutes after injection [2]: 2.35 millimolar | serum calcium level at 60 minutes after injection [2]: about 2.55 millimolar

Compound: calcitonin [reference compound]
serum calcium level at 30 minutes after injection [2]: about 2.35 millimolar

Compound: calmon calcitonin [reference compound]
cyclic AMP response [1]: 2.5 fold
